This is an account of results in US12433870B2, “Supramolecular photoprotection of a photosensitizer” (Northwestern University, priority 2019, dated 2025).

A short description of series [1]: Detection of singlet oxygen (ADPA chemical method, methylene blue reference). The format is physicochemical. The following applies: 20 μM, 630 nm, 50 mW, 20 min. The method, then: Singlet oxygen (^1O2) quantum-yield measurements were conducted by a chemical method. The disodium salt of 9.10-anthracenedipropionic acid (ADPA) was used as singlet oxygen detection reagent with methylene blue used as a reference (Φt=0.53). In this experiment, ADPA (0.1 μmol) was added to the H2O solution of ExBox^4+⊃DPP (20 μM) with a laser irradiation (630 nm, 50 mW) for 20 min, followed by quantification of ^1O2 by the absorbance intensity change (UV-3600 Shimadzu spectrophotometer) at 380 nm of ADPA. The calculation of ^1O2 quantum yield is based on the equality ΦΔ=(ΔAs/[…])Φr. ΔAs is the absorption change of detected photosensitizer, ΔAr is the absorption change of referenced photosensitizer and Φ^r is the quantum yield of singlet oxygen of referenced photosensitizer (methylene blue).
(§1) ADPA (0.1 μmol) was added to the H2O solution of DPPH2^+ (20 μM) with a laser irradiation (630 nm, 50 mW) for 20 min, followed by quantification of the ^1O2 by the absorbance intensity change (UV-3600 Shimadzu spectrophotometer) at 380 nm of ADPA. The calculation of the ^1O2 quantum yield is based on the equality ΦΔ=(ΔAs/ΔAr)Φr where ΔAs is the absorption change of detected photosensitizer, ΔAr is the absorption change of referenced photosensitizer and Φr is the quantum yield of singlet oxygen of referenced photosensitizer (methylene blue). Measured ^1O2 quantum yield of DPPH2^2+ is 0.38 in H2O.
as §1, with “acetone” for “H2O”, “DPP” for “DPPH2^+”, “DPP” for “DPPH2^2+”, “0.43” for “0.38”, “acetone.” for “H2O.”

Series [2] in a line: Solubility in water / PBS buffer. The format is physicochemical.
The subject of series [3] is A2780 cells. Nature of the series: In vitro PDT efficacy, MTT assay after visible light irradiation. The format is cell-based, human. The settings on record: 10 μM PBS solution, light dose 0.078 J cm^−2. On the procedure: A2780 cells (human ovarian cancer cell line) and MCF-7 cells (human breast adenocarcinoma cell line) obtained from Sigma-Aldrich and American Type Culture Collection (ATCC, Rockville, MD, USA), respectively were utilized for cell culture experiments. These cells were cultured in Dulbecco's Modified Eagle's Medium (DMEM) supplemented with 10% fetal bovine serum (FBS), penicillin (100 IU/mL) and streptomycin (100 μg/mL) at 37° C. in the presence of air (95%) and CO2 (5%).
A2780 or MCF-7 cells (2×10^5 cells/mL, 100 μL) were seeded in each well of a black 96-well plate. Stock solution of ExBox^4+⊃DPP in PBS (1 mM, 10 μL) was added to each well to achieve working concentrations and incubated for 12 h. After incubation, wells were washed with PBS, added with 100 μL of DMEM and immediately irradiated with visible light using Max-303 Xenon Light Source (385-740 nm, Asahi Spectra) at different light intensities (5-50 mW) for 1 to 15 min. Following irradiation, cells were incubated overnight and then added with MTT (5 mg/mL in PBS, 10 μL). After 4 h incubation with MTT, media from each well was pipetted out, formazan crystals deposited on the plate were dissolved in 200 μL of Me2SO, and the absorbance of each well was measured using a microplate reader at 560 nm. All the samples were analyzed in quadruplicates.
The percentage cell viability was calculated using the following formula: % cell viability=(OD of treated sample/OD of untreated sample)*100.
Background: Tetrazolium dyes change colour on reduction, which living cells bring about.

In series [4] the test system is A2780 cells. The experiment in a line: Live cell confocal microscopy, cellular uptake and co-localization. The format is cell-based, human. The settings on record: lysosomal uptake, control experiment. The method, then: A2780 cells (1×10^5 cells/mL, 300 μL) were plated in each well of an 8-well μ-slide (ibidi cell focus) and cultured overnight. PBS solution of ExBox^4+⊃DPP was added to each well and incubated for predetermined time points. For cellular co-localization studies, cells were washed with phenol free DMEM and stained with LysoTracker green (lysosome stain, 1:1000 dilution) or MitoSpy™ Green FM (mitochondria stain, 1:2000 dilution) or NucBlue™ Live ReadyProbes™ Reagent (nuclei stain, 1 drop). For the live-dead assay, cells were incubated with PBS solution of ExBox^4+⊃DPP irradiated for 10 min at […] light intensity, incubated overnight, and stained with Calcein AM (2 μM) and Ethidium homodimer-1 (4 μM). Plated cells were imaged within a humidified chamber using a 63× oil-immersion objective on a SP5 Leica Confocal Microscope using HyD detectors and lasers.

The conditions of series [5]: reference photosensitizer; cited from earlier work.

`C1=Cc2nc1cc1ccc([nH]1)c(-c1ccccc1)c1nc(cc3ccc([nH]3)c2-c2ccccc2)C=C1` [DPP, 5,15-diphenylporphyrin]: the “^1O2 quantum yield” value in series [1] (in acetone) is 0.43. Further, in series [2] (H2O), the “solubility in H2O” value is on record as “insoluble”. For the same compound, in series [2] (water and PBS buffer), the “solubility in water and PBS buffer” value is given as “insoluble”.

Take `C1=Cc2nc1cc1ccc([nH]1)c(-c1ccccc1)c1nc(cc3ccc([nH]3)c2-c2ccccc2)C=C1` [DPPH2^2+, reference compound]: the “^1O2 quantum yield” value in series [1] (in H2O) was 0.38. In addition, the “cells killed (PDT control experiment)” value in series [3] was roughly 90%. For the same compound, the “cellular uptake compared with the complex (fluorescence intensity inside cells)” value in series [4] is given as “less efficient”.

For `CN(C)c1ccc2nc3ccc(=[N+](C)C)cc-3sc2c1` [methylene blue], the “^1O2 quantum yield of reference” value in series [5] was 0.53.
